# Assay results from patent US7659246B2, “Treatment of osteoarthritis” (Promics Pty Limited, priority 2002, dated 2010).
# Experiments:
# osteoarthritis [1] = test: Clinical trial of PMX53 in arthritic dogs; type: in vivo, dog; conditions: dogs with osteoarthritis; sc injection
# osteoarthritis [2] = test: Clinical trial of PMX53 in arthritic dogs; type: in vivo, dog
# From the text: A single oral dose of the drug appears to be effective for at least 3-4 days, even in the most severe case. […] The individual cases are listed below.
# dermal Arthus reaction = test: Reverse passive dermal Arthus reaction in the rat; type: in vivo; conditions: intravenous, oral and topical pretreatment
# [3] = system: antigen-induced arthritis of the knee joint; test: Rat monoarticular antigen-induced arthritis; type: in vivo
# Protocol: Female Wistar rats (150-250 g) were obtained from the Central Animal Breeding House, University of Queensland. […] Each rat received a subcutaneous injection of this suspension (0.5 mL) on days 1 and 7. On day 12-28, rats were separated into separate cages, and body weight and food and water intake monitored daily. Rats received either ordinary tap water or drinking water containing AcF-[OPdChaWR] (1). […] On day 14, rats were anaesthetised and their hind limbs shaven. […] Rats were euthanased on day 28, and whole blood collected into an Eppendorf tube and allowed to spontaneously clot on ice. Blood samples were centrifuges (11,000 rpm×3 min) and serum collected and stored at −20° C. until analysis of serum cytokines using an ELISA. Each knee capsule was lavaged with 100 μL saline, and the total cell count determined using a haemocytometer. In addition, an aliquot of the knee joint lavage fluid was dropped onto a glass slide, and allowed to air dry. Once dry, cells were stained with a differential stain (Diff Quick) and a differential cell count was performed using a 40× dry lens microscope. The remaining lavage fluids from each joint were stored at −20° C. until later analysis of intra-articular cytokine levels using an ELISA. Each knee joint was severed, trimmed leaving only the area of interest and the skin was split with a scalpel blade. Knee samples were stored in 10% buffered formalin for >10 d. Knees were then rinsed with distilled water and placed in a saturated solution of EDTA solution for 21 d for decalcification before being embedded in paraffin wax. Knee tissue samples were prepared using standard histological techniques as described in Example 1, and stained using an haematoxylin and eosin stain. Histological slides were analysed in a blind fashion. […] In no samples was there evidence of significant bone erosion. Samples were thawed on the day of ELISA analysis, and serum or intra-articular lavage fluid TNFα and IL-6 concentrations were determined from a standard curve, using an ELISA as described in Example 1.
# induced osteoarthritis = test: Induced osteoarthritis in dogs (cruciate ligament transection); type: in vivo, dog
# Protocol: Four healthy dogs were obtained from a group of pound dogs destined for euthanasia. The dogs were acclimatised to the experimental canine ward for 7 days before the experiment commenced. Dogs were housed individually and fed on a mixture of dry dog food, canned dog food and occasional raw bones. They were walked for 10 minutes twice daily throughout the trial. The dogs were of age and sex as follows:
# PMX53 was synthesised by the Institute of Molecular Bioscience at the University of Queensland. The drug was dissolved in 30% polyethylene glycol 400 (PEG 400) in normal saline. The solution was made to a concentration of 3 mg/ml. The placebo vehicle was 30% PEG 400 in saline. All treatments were sterilised by filtration and stored at 4° C. The dogs were given the drug or placebo at a dose rate of 1 ml/10 kg body weight. The treatments were assigned to the dogs in a random fashion. The drug containers were marked so that the attendants who scored the gait were unaware of the treatment given to each dog.
# The cruciate ligament of the left stifle (knee) joint was transected surgically by an experienced specialist surgeon. The incision in the skin was approximately 2 centimeters long. The dogs were given postoperative pain relief, including epidural analgesia and opioids. At 24 hours after the surgery all dogs were limping. No supplementary analgesic therapy was deemed necessary after day 1. All dogs tolerated the procedure very well.
# The drug was given as a subcutaneous injection (0.3 mg/kg) into the loose skin on the dorsum of the neck once daily. […] Dogs were assessed twice daily for lameness while they were walked. The scoring was done by at least two people.
# [4] = dogs, day 28, compared to arthritic controls, FIG. 7
smiles,measurement,setting,value
"CC(=O)N[C@@H](Cc1ccccc1)C(=O)N[C@H]1CCCNC(=O)[C@H](CCCNC(=N)N)NC(=O)[C@H](Cc2c[nH]c3ccccc23)NC(=O)[C@@H](CC2CCCCC2)NC(=O)[C@@H]2CCCN2C1=O [PMX53, AcF-[OPdChaWR]]",duration of effects of one injection,osteoarthritis [1],last for weeks
same,joint pain on manipulation,osteoarthritis [2]; Case #1,no joint pain on manipulation
same,morning stiffness,osteoarthritis [2]; Case #1,no morning stiffness
same,range of joint movement,osteoarthritis [2]; Case #1,not improved
same,time to very noticeable improvement after injection,"osteoarthritis [2]; Case #1, 0.3 mg/kg subcutaneously",≤ 24 h
same,improvement after treatment,"osteoarthritis [2]; Case #1, 1 mg/kg oral once daily, then 0.3 mg/kg sc once daily",marked
same,side effects,"osteoarthritis [2]; Case #1, injections for 12 months",no apparent side effects
same,attitude (owner report),osteoarthritis [2]; Case #2,noticeable improvement in attitude
same,lameness,"osteoarthritis [2]; Case #2, 1 mg/kg orally 4 weeks, then 0.3 mg/kg sc once daily",did not improve
same,response to therapy,"osteoarthritis [2]; Case #3, 1 mg/kg per day orally, then 0.3 mg/kg sc as required, no NSAIDs",responded very well
same,side effects,"osteoarthritis [2]; Case #3, after 9 months of treatment",no side effects
same,control of clinical signs,"osteoarthritis [2]; Case #4 (rheumatoid arthritis), 0.3 mg/kg SC once a week alone",did not completely control the clinical signs
same,clinical result in combination with prednisolone,"osteoarthritis [2]; Case #4, PMX53 once a week with prednisolone 2.5 mg PO once every second day",excellent results
same,duration of effect of a single oral dose,"osteoarthritis [2]; dogs with osteoarthritis, oral",3 to 4 days
same,side effects,"osteoarthritis [2]; dogs, up to 12 months treatment",No side effects
same,rise in circulating TNFα associated with a dermal Arthus reaction,"dermal Arthus reaction; rat serum, FIG. 2",inhibition of the rise in circulating TNFα
same,vascular leakage associated with a dermal Arthus reaction,"dermal Arthus reaction; rat, Evans blue absorbance at 650 nm, FIG. 1",inhibition of the vascular leakage
same,right knee joint IL-6 level in joint lavage,[3]; FIG. 5,inhibition
same,right knee joint TNFα level in joint lavage,[3]; FIG. 5,inhibition
same,arthritic right knee joint swelling,"[3]; given orally on Days -2 to +14, FIG. 4",inhibition of arthritic right knee joint swelling
same,cartilage erosion,"induced osteoarthritis; dog #2 (drug treated), also seen in placebo dog #4, day 28",mild cartilage erosion
same,time of treatment to improvement in the degree of lameness,"induced osteoarthritis; dogs n=2, 0.3 mg/kg sc once daily, placebo 10-13 days, FIG. 6b",4 to 6 days
same,clinical impression of ability to walk,"induced osteoarthritis; dogs, 0.3 mg/kg sc once daily",clearly improved the ability of the dogs to walk
same,gait at the end of the trial,"induced osteoarthritis; dogs, 0.3 mg/kg sc once daily, day 28",relatively sound
same,blood biochemistry and haematology,"induced osteoarthritis; dogs, before surgery and at day 28",No abnormalities were detected
same,fibrosis of the joint (histopathology),induced osteoarthritis; [4],reduced fibrosis
same,thickening of the synovial membrane (histopathology),induced osteoarthritis; [4],reduced thickening of the synovial membrane
same,discomfort when injected,"induced osteoarthritis; dogs, sc in 30% PEG 400 in saline, drug and placebo alike",mild discomfort
same,site of injection at post mortem,"induced osteoarthritis; dogs, sc, dorsum of the neck, day 28",no abnormalities
same,recovery from surgery,"induced osteoarthritis; dogs, versus placebo-treated dogs",recovered from surgery more rapidly
